Laboratory results published in patent US12227500B2, “Substituted pyrrolo[2,3-b]pyridines for suppressing toxic endoplasmic reticulum stress” (THE TRUSTEES OF COLUMBIA UNIVERSITY IN THE CITY OF NEW YORK, priority 2018, dated 2025).

Legend:
Experiment in all cases: Radiolabeled ATP kinase assay, panel of 371 kinases (Table S6)
Type in all cases: biochemical
[1] = molecular target: T1, panel of 371 human kinases (Homo sapiens, UniProt P53355); details: DAPK1; 0.1 μM; 10 μM ATP; read-out: % Enzyme Activity (relative to DMSO controls)
T1 construct: purchased Reaction Biology Corp
Text: (§1) ; FIG. 38C). […]. Further targeted analyses, such as genetic knock-down or knock-out, may be warranted to parse the role of these additional kinases in our model of neurodegeneration.

[2] = molecular target: T2, panel of 371 human kinases (Homo sapiens, UniProt P14616); details: IRR/INSRR; 0.1 μM; 10 μM ATP; read-out: % Enzyme Activity (relative to DMSO controls)
T2 construct: purchased Reaction Biology Corp
T2 sequence (P14616 27-1297): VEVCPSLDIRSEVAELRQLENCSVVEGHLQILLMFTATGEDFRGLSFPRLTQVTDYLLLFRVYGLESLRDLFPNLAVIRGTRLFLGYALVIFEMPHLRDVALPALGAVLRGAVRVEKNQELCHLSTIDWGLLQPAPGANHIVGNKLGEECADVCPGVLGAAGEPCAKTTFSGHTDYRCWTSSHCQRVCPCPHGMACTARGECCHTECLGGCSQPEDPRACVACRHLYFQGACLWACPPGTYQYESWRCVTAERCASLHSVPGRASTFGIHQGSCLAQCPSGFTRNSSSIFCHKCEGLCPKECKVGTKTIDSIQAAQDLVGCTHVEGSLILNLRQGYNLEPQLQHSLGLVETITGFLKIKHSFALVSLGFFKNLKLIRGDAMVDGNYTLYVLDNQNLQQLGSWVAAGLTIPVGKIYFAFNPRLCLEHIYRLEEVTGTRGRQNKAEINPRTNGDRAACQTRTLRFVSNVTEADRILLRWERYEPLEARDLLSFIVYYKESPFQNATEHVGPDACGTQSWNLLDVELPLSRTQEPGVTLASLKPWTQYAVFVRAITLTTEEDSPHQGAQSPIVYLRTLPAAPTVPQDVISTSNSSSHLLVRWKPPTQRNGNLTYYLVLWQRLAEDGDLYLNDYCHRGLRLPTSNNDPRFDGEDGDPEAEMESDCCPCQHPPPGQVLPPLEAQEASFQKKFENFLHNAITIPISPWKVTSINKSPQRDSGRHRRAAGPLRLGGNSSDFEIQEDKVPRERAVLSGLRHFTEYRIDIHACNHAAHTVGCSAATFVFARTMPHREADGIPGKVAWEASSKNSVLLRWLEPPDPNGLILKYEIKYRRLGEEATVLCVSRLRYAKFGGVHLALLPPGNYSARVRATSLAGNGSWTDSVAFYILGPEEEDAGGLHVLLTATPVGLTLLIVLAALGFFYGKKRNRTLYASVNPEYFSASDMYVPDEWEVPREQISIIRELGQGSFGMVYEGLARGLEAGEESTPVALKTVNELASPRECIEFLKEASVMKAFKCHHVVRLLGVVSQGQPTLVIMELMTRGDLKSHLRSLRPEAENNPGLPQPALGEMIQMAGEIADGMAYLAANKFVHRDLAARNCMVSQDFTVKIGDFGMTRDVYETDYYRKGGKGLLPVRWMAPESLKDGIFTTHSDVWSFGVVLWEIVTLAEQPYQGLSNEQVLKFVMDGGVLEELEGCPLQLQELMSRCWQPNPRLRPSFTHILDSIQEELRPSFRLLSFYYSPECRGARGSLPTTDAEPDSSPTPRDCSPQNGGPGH
Text: as §1

[3] = molecular target: T3, panel of 371 human kinases (Homo sapiens, UniProt Q16816); details: PHKg1; 0.1 μM; 10 μM ATP; read-out: % Enzyme Activity (relative to DMSO controls)
T3 construct: purchased Reaction Biology Corp
Text: as §1

[4] = molecular target: T4, panel of 371 human kinases (Homo sapiens, UniProt Q15831); details: LKB1; 0.1 μM; 10 μM ATP; read-out: % Enzyme Activity (relative to DMSO controls)
T4 construct: purchased Reaction Biology Corp
Text: as §1

[5] = molecular target: T5, panel of 371 human kinases (Homo sapiens, UniProt O75914); details: PAK3; 0.1 μM; 10 μM ATP; read-out: % Enzyme Activity (relative to DMSO controls)
T5 construct: purchased Reaction Biology Corp
Text: as §1

[6] = molecular target: T6, panel of 371 human kinases (Homo sapiens, UniProt Q8TDX7); details: NEK7; 0.1 μM; 10 μM ATP; read-out: % Enzyme Activity (relative to DMSO controls)
T6 construct: purchased Reaction Biology Corp
Text: as §1

[7] = molecular target: T7, panel of 371 human kinases (Homo sapiens, UniProt Q9UEE5); details: DRAK1/STK17A; 0.1 μM; 10 μM ATP; read-out: % Enzyme Activity (relative to DMSO controls)
T7 construct: purchased Reaction Biology Corp
Text: as §1

[8] = molecular target: T8, panel of 371 human kinases (Homo sapiens, UniProt Q14289); details: PYK2; 0.1 μM; 10 μM ATP; read-out: % Enzyme Activity (relative to DMSO controls)
T8 construct: purchased Reaction Biology Corp
Text: as §1

[9] = molecular target: T9, panel of 371 human kinases (Homo sapiens, UniProt P45984); details: JNK2; 0.1 μM; 10 μM ATP; read-out: % Enzyme Activity (relative to DMSO controls)
T9 construct: purchased Reaction Biology Corp
T9 sequence (P45984 whole entry): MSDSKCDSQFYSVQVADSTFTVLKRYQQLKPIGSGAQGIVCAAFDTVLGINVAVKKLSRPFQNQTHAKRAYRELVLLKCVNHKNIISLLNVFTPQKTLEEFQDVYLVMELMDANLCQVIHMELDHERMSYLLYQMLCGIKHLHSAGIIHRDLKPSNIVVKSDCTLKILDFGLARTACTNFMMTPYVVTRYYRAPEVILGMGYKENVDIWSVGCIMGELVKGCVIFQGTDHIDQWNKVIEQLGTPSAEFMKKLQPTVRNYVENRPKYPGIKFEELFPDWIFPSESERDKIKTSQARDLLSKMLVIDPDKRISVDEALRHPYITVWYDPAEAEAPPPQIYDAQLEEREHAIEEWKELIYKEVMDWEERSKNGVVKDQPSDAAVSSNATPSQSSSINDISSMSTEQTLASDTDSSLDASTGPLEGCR
Text: as §1

[10] = molecular target: T10, panel of 371 human kinases (Homo sapiens, UniProt P11309); details: PIM1; 0.1 μM; 10 μM ATP; read-out: % Enzyme Activity (relative to DMSO controls)
T10 construct: purchased Reaction Biology Corp
Text: as §1

[11] = molecular target: T11, panel of 371 human kinases (Homo sapiens, UniProt O75582); details: MSK1/RPS6KA5; 0.1 μM; 10 μM ATP; read-out: % Enzyme Activity (relative to DMSO controls)
T11 construct: purchased Reaction Biology Corp
Text: as §1

[12] = molecular target: T12, panel of 371 human kinases (Homo sapiens, UniProt Q15835); details: GRK1; 0.1 μM; 10 μM ATP; read-out: % Enzyme Activity (relative to DMSO controls)
T12 construct: purchased Reaction Biology Corp
Text: as §1

[13] = molecular target: T13, panel of 371 human kinases (Homo sapiens, UniProt P20794); details: MAK; 0.1 μM; 10 μM ATP; read-out: % Enzyme Activity (relative to DMSO controls)
T13 construct: purchased Reaction Biology Corp
T13 sequence (P20794 whole entry): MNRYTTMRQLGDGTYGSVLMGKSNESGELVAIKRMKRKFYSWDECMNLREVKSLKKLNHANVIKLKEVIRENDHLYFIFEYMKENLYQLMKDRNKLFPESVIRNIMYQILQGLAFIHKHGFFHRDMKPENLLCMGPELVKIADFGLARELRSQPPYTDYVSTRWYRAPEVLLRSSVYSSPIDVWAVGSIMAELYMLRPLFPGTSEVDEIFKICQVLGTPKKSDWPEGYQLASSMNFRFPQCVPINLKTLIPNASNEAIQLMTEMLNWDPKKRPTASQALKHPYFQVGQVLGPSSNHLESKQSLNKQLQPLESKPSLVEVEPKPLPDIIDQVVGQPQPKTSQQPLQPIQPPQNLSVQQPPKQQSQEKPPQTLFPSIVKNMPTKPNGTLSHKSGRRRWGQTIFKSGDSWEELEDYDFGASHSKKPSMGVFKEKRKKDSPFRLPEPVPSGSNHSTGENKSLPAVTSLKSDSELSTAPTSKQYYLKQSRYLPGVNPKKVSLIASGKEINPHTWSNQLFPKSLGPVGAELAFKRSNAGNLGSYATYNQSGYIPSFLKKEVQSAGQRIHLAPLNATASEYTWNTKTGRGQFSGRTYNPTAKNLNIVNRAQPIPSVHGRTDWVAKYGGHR
Text: as §1

[14] = molecular target: T14, panel of 371 human kinases (Homo sapiens, UniProt Q96SB4); details: SRPK1; 0.1 μM; 10 μM ATP; read-out: % Enzyme Activity (relative to DMSO controls)
T14 construct: purchased Reaction Biology Corp
Text: as §1

[15] = molecular target: T15, panel of 371 human kinases (Homo sapiens, UniProt P45983); details: JNK1; 0.1 μM; 10 μM ATP; read-out: % Enzyme Activity (relative to DMSO controls)
T15 construct: purchased Reaction Biology Corp
T15 sequence (P45983 whole entry): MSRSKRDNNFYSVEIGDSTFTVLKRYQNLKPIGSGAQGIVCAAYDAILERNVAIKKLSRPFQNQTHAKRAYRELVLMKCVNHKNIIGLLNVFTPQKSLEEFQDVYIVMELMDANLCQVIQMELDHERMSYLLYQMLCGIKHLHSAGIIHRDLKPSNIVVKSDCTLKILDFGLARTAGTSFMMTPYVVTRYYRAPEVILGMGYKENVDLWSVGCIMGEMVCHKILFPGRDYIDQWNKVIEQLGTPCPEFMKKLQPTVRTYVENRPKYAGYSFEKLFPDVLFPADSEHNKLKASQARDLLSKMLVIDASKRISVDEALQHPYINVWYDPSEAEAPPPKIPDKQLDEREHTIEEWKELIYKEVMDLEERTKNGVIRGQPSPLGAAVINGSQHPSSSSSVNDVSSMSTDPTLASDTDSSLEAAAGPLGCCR
Text: as §1

[16] = molecular target: T16, panel of 371 human kinases (Homo sapiens, UniProt Q96PY6); details: NEK1; 0.1 μM; 10 μM ATP; read-out: % Enzyme Activity (relative to DMSO controls)
T16 construct: purchased Reaction Biology Corp
Text: as §1

[17] = molecular target: T17, panel of 371 human kinases (Homo sapiens, UniProt Q9UM73); details: ALK; 0.1 μM; 10 μM ATP; read-out: % Enzyme Activity (relative to DMSO controls)
T17 construct: purchased Reaction Biology Corp
Text: as §1

[18] = molecular target: T18, panel of 371 human kinases (Homo sapiens, UniProt Q96PN8); details: TSSK3/STK22C; 0.1 μM; 10 μM ATP; read-out: % Enzyme Activity (relative to DMSO controls)
T18 construct: purchased Reaction Biology Corp
T18 sequence (Q96PN8 whole entry): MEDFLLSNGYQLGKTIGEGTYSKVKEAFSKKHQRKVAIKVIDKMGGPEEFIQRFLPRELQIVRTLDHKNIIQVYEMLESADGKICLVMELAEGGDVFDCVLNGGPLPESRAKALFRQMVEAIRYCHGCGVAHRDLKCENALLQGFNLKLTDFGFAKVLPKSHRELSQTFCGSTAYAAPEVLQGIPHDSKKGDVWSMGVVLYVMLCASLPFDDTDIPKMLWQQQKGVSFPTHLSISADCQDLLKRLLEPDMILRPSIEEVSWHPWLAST
Text: as §1

[19] = molecular target: T19, panel of 371 human kinases (Homo sapiens, UniProt Q32MK0); details: MYLK3; 0.1 μM; 10 μM ATP; read-out: % Enzyme Activity (relative to DMSO controls)
T19 construct: purchased Reaction Biology Corp
T19 sequence (Q32MK0 whole entry): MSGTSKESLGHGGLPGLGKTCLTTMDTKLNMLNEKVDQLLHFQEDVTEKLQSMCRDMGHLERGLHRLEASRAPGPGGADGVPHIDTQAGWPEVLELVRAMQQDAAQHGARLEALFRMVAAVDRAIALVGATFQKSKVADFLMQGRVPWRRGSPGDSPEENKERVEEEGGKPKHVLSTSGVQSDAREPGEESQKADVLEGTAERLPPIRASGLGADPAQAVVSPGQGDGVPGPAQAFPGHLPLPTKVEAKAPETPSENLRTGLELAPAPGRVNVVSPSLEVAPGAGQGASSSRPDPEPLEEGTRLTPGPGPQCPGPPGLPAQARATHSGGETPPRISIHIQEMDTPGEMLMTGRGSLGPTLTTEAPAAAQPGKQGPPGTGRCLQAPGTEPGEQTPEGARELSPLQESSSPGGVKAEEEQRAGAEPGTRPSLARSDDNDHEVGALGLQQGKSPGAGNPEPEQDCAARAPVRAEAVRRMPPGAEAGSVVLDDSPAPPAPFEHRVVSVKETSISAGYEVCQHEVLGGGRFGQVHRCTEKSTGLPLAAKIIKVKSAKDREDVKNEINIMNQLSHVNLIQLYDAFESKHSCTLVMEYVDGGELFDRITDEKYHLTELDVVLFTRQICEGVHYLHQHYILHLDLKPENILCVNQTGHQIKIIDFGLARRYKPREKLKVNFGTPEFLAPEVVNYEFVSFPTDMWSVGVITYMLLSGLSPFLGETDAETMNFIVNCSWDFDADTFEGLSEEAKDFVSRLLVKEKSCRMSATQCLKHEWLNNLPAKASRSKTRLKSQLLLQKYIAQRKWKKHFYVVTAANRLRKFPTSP
Text: as §1

[20] = molecular target: T20, panel of 371 human kinases (Homo sapiens, UniProt Q13882); details: BRK; 0.1 μM; 10 μM ATP; read-out: % Enzyme Activity (relative to DMSO controls)
T20 construct: purchased Reaction Biology Corp
T20 sequence (Q13882 whole entry): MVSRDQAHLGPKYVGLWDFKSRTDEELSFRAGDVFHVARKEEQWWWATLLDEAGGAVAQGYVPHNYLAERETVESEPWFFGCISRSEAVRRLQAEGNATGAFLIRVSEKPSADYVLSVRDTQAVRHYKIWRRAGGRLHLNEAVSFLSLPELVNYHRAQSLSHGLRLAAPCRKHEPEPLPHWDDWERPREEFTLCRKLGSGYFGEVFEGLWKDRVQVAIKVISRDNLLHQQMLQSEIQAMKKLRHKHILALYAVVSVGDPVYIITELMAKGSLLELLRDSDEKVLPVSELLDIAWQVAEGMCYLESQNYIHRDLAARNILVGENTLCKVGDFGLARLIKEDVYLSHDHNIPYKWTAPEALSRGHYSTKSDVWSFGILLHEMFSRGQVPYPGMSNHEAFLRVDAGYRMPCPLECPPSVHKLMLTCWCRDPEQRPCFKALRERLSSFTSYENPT
Text: as §1

[21] = molecular target: T21, panel of 371 human kinases (Homo sapiens, UniProt P43250); details: GRK6; 0.1 μM; 10 μM ATP; read-out: % Enzyme Activity (relative to DMSO controls)
T21 construct: purchased Reaction Biology Corp
Text: as §1

[22] = molecular target: T22, panel of 371 human kinases (Homo sapiens, UniProt Q96S53); details: TESK2; 0.1 μM; 10 μM ATP; read-out: % Enzyme Activity (relative to DMSO controls)
T22 construct: purchased Reaction Biology Corp
T22 sequence (Q96S53 whole entry): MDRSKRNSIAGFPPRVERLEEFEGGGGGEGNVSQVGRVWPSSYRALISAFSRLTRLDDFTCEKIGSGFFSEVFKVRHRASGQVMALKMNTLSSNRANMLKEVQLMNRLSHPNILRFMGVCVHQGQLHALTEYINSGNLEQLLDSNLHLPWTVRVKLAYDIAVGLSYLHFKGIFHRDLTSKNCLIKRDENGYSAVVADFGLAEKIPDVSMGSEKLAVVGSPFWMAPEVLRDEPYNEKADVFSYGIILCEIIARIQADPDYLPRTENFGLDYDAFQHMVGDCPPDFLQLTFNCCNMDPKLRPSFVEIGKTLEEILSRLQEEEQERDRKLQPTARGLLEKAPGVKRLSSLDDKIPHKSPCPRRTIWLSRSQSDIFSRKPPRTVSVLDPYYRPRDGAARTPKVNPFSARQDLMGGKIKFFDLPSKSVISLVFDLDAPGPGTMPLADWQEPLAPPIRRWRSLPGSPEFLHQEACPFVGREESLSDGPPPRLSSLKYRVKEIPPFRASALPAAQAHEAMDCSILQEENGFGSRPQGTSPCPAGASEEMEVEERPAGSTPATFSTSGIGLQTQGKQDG
Text: as §1

[23] = molecular target: T23, panel of 371 human kinases (Homo sapiens, UniProt O14733); details: MKK7; 0.1 μM; 10 μM ATP; read-out: % Enzyme Activity (relative to DMSO controls)
T23 construct: purchased Reaction Biology Corp
Text: as §1

[24] = molecular target: T24, panel of 371 human kinases (Homo sapiens, UniProt Q9P1W9); details: PIM2; 0.1 μM; 10 μM ATP; read-out: % Enzyme Activity (relative to DMSO controls)
T24 construct: purchased Reaction Biology Corp
Text: as §1

Structure (SMILES)	remaining activity at 0.1 µM [1] [%]	remaining activity at 0.1 µM [2] [%]	remaining activity at 0.1 µM [3] [%]	remaining activity at 0.1 µM [4] [%]	remaining activity at 0.1 µM [5] [%]	remaining activity at 0.1 µM [6] [%]	remaining activity at 0.1 µM [7] [%]	remaining activity at 0.1 µM [8] [%]	remaining activity at 0.1 µM [9] [%]	remaining activity at 0.1 µM [10] [%]	remaining activity at 0.1 µM [11] [%]	remaining activity at 0.1 µM [12] [%]	remaining activity at 0.1 µM [13] [%]	remaining activity at 0.1 µM [14] [%]	remaining activity at 0.1 µM [15] [%]	remaining activity at 0.1 µM [16] [%]	remaining activity at 0.1 µM [17] [%]	remaining activity at 0.1 µM [18] [%]	remaining activity at 0.1 µM [19] [%]	remaining activity at 0.1 µM [20] [%]	also measured
OCCN1CCN(Cc2ccc(-c3cnc4[nH]cc(-c5cccc(Cl)c5)c4c3)cc2)CC1 [Compound 12k, 2-(4-(4-(3-(3-Chlorophenyl)-1H-pyrrolo[2,3-b]pyridin-5-yl)benzyl)piperazin-1-yl)ethan-1-ol]	95.4	89.9	74.5	78.7	90.8	101	88.8	89.2	97	98.5	98.4	92	87.5	100	86.8	76.5	85.3	129	96.7	95	remaining activity at 0.1 µM [21]: 95.2%; remaining activity at 0.1 µM [22]: 92.7%; remaining activity at 0.1 µM [23]: 105%; remaining activity at 0.1 µM [24]: 106%
CN1CCN(Cc2ccc(-c3cnc4[nH]cc(-c5ccc6[nH]ccc6c5)c4c3)cc2)CC1 [Compound 1, 3-(1H-Indol-5-yl)-5-(4-((4-methylpiperazin-1-yl)methyl)phenyl)-1H-pyrrolo[2,3-b]pyridine, reference compound]	96.3	50.1	37.6	101	97.3	94.9	88.7	84.8	99.4	93.2	101	107	101	104	98.2	80.1	73.8	146	109	86.4	remaining activity at 0.1 µM [21]: 91.5%; remaining activity at 0.1 µM [22]: 112%; remaining activity at 0.1 µM [23]: 99.8%; remaining activity at 0.1 µM [24]: 106%
